For one test, the target named is PMX (Plasmodium falciparum, UniProt Q8IAS0). More on the design: endogenous in cells. The following applies: negative control, literature (Salmon et al. 2001); cited from earlier work.
Test [1] concerns PMIX. The test is described as follows: Autocatalytic processing of PMIX to p55. Format: cell-based. The note with it: P. falciparum parasite. From the text: The development of Example 1A as a PMIX/PMX dual inhibitor of the P. falciparum parasite has allowed for the analysis of the function of these aspartic acid proteases. To do this, PMIX was processed to a 55 kDa (p55) protein and this was not inhibited by E64.

In test [2] the test system is PMIX. The test is described as follows: Cleavage of PMIX substrates RAP1 and ASP in parasite extracts. The format is cell-based, P. falciparum. How it is done:
To confirm that Example 1A was a dual inhibitor of PMIX and PMX function, the ability of this compound to inhibit cleavage of the known PMIX substrate Rhoptry Associated Protein 1 (RAPI) in parasite extracts was tested (Pino et al., 2017). RAP1 is a merozoite rhoptry protein that is localized to the parasitophorous vacuole after invasion and processed by both PMIX and SUB1 (Pino et al., 2017). […] RAP1 was not released into the parasite supernatant because it was deposited in the parasitophorous vacuole during the invasion process (Baldi, D., Andrews, K., Waller, R., Roos, D., Howard, R., Crabb, B. and Cowman, A. (2000)). RAP1 controls rhoptry targeting of RAP2 in the malaria parasite Plasmodium falciparum. Embo Journal 19, 2435-2443.

The subject of the next test is parasite. The test is described as follows: Parasite LDH growth assay (Parasite Assay), antiparasite potency. The format is cell-based. The note with it: parasite LDH growth assay, ring stage parasites, 72 hours incubation at 37° C., read-out: EC50. Put shortly:
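Growth was read by an LDH assay after a freeze–thaw cycle (−80 °C overnight, 4 h thaw at RT). Before that, parasites grew with compound for 72 h at 37 °C under gassed, humidified conditions. The input was a ring-stage culture adjusted to 0.7% parasitemia and 2% haematocrit in serum (5%)/albumax (0.5%)-supplemented RPMI-Hepes.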

Test [3] deals with PbmCherryLuci sporozoites. The test is described as follows: Inhibition of liver to blood transition in C57BL/6 mice (FIG. 8). Format: in vivo, Plasmodium berghei. As for the experimental part: 40,000 PbmCherryLuci sporozoites (or the indicated number of sporozoites) were inoculated i.v. and compounds were administered by oral gavage at indicated time points during liver infection. Liver infection levels and egress of parasites from the liver were measured by bioluminescence signal from the parasites using an In Vivo Imaging System (IVIS, Perkin Elmer) at the peak of liver infection (52 hours post infection, hpi), during liver egress (55 hpi) as well as during the first round of blood infection (65 hpi). Initiation of blood infection was also measured by flow cytometry at 65 hpi using the mCherry reporter to determine the parasitemia of this first round of blood infection. These analyses allowed quantification of the efficacy of drug killing of parasites in the liver (52 hpi), preventing their egress from the liver (55 hpi) or preventing their successful infection of the blood (65 hpi). Mice were monitored by giemsa stained thin blood smears for the presence of parasites in the blood for 30 days post infection. If no blood infection was seen during the subsequent 30 days, mice were declared cured of malaria infection.
C57BL/6 mice were administered Example 1A or Example 75A as described in the general experimental procedure.

A further test has as its system PbmCherryLuci. The test is described as follows: Prime/boost immunisation of C57BL/6 mice with Example 75A, mosquito bite challenge (FIG. 9). Format: in vivo, Plasmodium berghei. The following applies: female C57BL/6, prime/boost, 2 x 500 mg/kg P.O. at 36 and 48 h; 10 mosquito bites at 12 weeks after prime. As for the experimental part: To investigate if chemoprophylaxis with Example 75A would serve as a chemovaccination as does Example IA, female C57BL/6 mice were immunized using a prime/boost regimen. The first immunisation was with 40,000 PbmCherryLuci salivary gland sporozoites i.v. followed by two doses of Example 75A at 500 mg/kg P.O. (given at 36 and 48 hours post infection). The second immunisation (boost) was six weeks later, this time with 20,000 PbmCherryLuci sporozoites but with Example 75A treatment as for the prime immunisation. Six weeks after the boost immunisation (twelve weeks after the prime immunisation) the immunised mice were challenged with the bites of 10 PbmCherryLuci infected mosquitoes for 15 minutes. Giemsa stained thin blood smears were analysed until day 30 for the presence of parasites in the blood and mice were considered to be protected from infection if no blood parasites were observed within the 30 days post mosquito bite challenge.

Structures are written as SMILES. pEC50: −log10 of the molar value. Read-outs that look alike come from different tables or passages of the source.

Chain of PMX (Q8IAS0 222-573): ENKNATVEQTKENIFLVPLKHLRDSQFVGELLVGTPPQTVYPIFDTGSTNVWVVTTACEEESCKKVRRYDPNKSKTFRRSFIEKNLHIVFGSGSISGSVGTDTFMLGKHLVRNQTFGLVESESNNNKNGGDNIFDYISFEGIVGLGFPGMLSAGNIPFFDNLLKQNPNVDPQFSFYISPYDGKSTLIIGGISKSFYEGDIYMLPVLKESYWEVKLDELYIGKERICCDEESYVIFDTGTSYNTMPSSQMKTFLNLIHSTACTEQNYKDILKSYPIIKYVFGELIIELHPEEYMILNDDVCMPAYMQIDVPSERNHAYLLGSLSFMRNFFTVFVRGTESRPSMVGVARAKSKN

Turning to `CC(C)C[C@H](NC(=O)[C@H]1O[C@@H]1C(=O)O)C(=O)NCCCCN=C(N)N` [Example E64, reference compound], at PMX, the SERA5 processing entry is “does not affect SERA5 processing”. Besides, the “PMIX processing to 55 kDa (p55) protein” value with PMIX [1] is recorded as “not inhibited”. Moreover, the “RAP1 processing by PMIX and SUB1” value with PMIX [2] (treated parasites/merozoites, processed forms p82 and p69, unprocessed p87) was “processed normally by PMIX and SUB1”. In addition, in the test on PMIX [2] (treated parasites, p47 processed, p87 full-length), the “Apical Sushi Protein (ASP) processing by PMIX” value was “processed into a 47 kDa polypeptide (p47)”.
In the case of `CCC1(CC)CC(=O)N([C@H]2c3cc(C(=O)N[C@@H]4c5ccccc5C[C@H]4O)ccc3O[C@@]2(C)COC)C(=N)N1` [Example 75A, (2R,3S)-3-(4,4-diethyl-2-imino-6-oxotetrahydropyrimidin-1(2H)-yl)-N-((1R,2R)-2-hydroxy-2,3-dihydro-1H-inden-1-yl)-2-(methoxymethyl)-2-methyl-2,3-dihydrobenzofuran-5-carboxamide], the pEC50 (usually the negative decadic logarithm of the EC50, by convention in mol/L) in the test with parasite (72 h) was 9.40. Also, the mice protected in test [3] (300 mg/kg) is listed as 8 mice; in test [3] (500 mg/kg) it was 10/11. Moreover, in test [3] (lower doses (below 300 mg/kg)), the “detection of parasites in the blood” value is reported as “large delays in the detection of parasites in the blood”. Besides, the “sterile protection from reinfection” value in the test on PbmCherryLuci turned out to be 100%.
With `CCC1(CC)CC(=O)N([C@@H]2CCOc3ccc(C(=O)N[C@H]4CC(C)(C)Oc5ccccc54)nc32)C(=N)N1` [Example 31B, (R)-4-(4,4-diethyl-2-imino-6-oxotetrahydropyrimidin-1(2H)-yl)-N-((S)-2,2-dimethylchroman-4-yl)-3,4-dihydro-2H-pyrano[3,2-b]pyridine-6-carboxamide], in the test with parasite (72 h), the pEC50 is 9.00.
On the same count and under the same terms, the result for `CC1(C)CC(=O)N(C2c3cc(C(=O)N[C@@H]4c5ccccc5C[C@H]4O)ccc3CC2(C)C)C(=N)N1` (stereo partly drawn) [Example 87, N-[(1R,2R)-2-hydroxyindan-1-yl]-3-(2-imino-4,4-dimethyl-6-oxo-hexahydropyrimidin-1-yl)-2,2-dimethyl-indane-5-carboxamide] reads 6.98; that for `CCC1(CC)CC(=O)N([C@H]2c3cc(C(=O)N[C@@H]4c5ccccc5C(F)(F)[C@H]4O)ccc3O[C@@]2(C)COC)C(=N)N1` [Example 290, (2R,3S)-3-(4,4-diethyl-2-imino-6-oxo-hexahydropyrimidin-1-yl)-N-[(1R,2S)-3,3-difluoro-2-hydroxy-indan-1-yl]-2-(methoxymethyl)-2-methyl-3H-benzofuran-5-carboxamide], 9.52; that for `CCC1(CC)CC(=O)N([C@H]2c3cc(C(=O)N[C@@H]4c5ccccc5C[C@@]4(C)O)ccc3OC[C@H]2COC)C(=N)N1` [Example 235, (3R,4R)-4-(4,4-diethyl-2-imino-6-oxo-hexahydropyrimidin-1-yl)-N-[(1R,2R)-2-hydroxy-2-methyl-indan-1-yl]-3-(methoxymethyl)chromane-6-carboxamide], 9.15.
Regarding `CCC1(CC)CC(=O)N([C@H]2c3cc(C(=O)N[C@@H]4c5ccccc5OC(C)(C)[C@H]4O)ccc3OC2(C)COC)C(=N)N1` (stereo partly drawn) [Example 73A, (2S,3S)-3-(4,4-diethyl-2-imino-6-oxotetrahydropyrimidin-1(2H)-yl)-N-((3S,4R)-3-hydroxy-2,2-dimethylchroman-4-yl)-2-(methoxymethyl)-2-methyl-2,3-dihydrobenzofuran-5-carboxamide], in the test on parasite, the pEC50 is 9.52.

(Values after US20230355622A1, “METHODS OF CHEMOVACCINATION AGAINST PLASMODIUM INFECTIONS” (Merck Sharp & Dohme LLC, priority 2020, published 2023).)
